The values that follow come from US8586591B2, “Aminopyrazine derivative and medicine” (Nippon Shinyaku Co., Ltd., priority 2009, dated 2013).

Counter-ions that a name gives are not always drawn.

The target of the test is T1, JAK3 tyrosine kinase (Homo sapiens, UniProt P52333).
T1 construct: purchased Carnabioscience Co
T1 sequence (P52333 1-1124): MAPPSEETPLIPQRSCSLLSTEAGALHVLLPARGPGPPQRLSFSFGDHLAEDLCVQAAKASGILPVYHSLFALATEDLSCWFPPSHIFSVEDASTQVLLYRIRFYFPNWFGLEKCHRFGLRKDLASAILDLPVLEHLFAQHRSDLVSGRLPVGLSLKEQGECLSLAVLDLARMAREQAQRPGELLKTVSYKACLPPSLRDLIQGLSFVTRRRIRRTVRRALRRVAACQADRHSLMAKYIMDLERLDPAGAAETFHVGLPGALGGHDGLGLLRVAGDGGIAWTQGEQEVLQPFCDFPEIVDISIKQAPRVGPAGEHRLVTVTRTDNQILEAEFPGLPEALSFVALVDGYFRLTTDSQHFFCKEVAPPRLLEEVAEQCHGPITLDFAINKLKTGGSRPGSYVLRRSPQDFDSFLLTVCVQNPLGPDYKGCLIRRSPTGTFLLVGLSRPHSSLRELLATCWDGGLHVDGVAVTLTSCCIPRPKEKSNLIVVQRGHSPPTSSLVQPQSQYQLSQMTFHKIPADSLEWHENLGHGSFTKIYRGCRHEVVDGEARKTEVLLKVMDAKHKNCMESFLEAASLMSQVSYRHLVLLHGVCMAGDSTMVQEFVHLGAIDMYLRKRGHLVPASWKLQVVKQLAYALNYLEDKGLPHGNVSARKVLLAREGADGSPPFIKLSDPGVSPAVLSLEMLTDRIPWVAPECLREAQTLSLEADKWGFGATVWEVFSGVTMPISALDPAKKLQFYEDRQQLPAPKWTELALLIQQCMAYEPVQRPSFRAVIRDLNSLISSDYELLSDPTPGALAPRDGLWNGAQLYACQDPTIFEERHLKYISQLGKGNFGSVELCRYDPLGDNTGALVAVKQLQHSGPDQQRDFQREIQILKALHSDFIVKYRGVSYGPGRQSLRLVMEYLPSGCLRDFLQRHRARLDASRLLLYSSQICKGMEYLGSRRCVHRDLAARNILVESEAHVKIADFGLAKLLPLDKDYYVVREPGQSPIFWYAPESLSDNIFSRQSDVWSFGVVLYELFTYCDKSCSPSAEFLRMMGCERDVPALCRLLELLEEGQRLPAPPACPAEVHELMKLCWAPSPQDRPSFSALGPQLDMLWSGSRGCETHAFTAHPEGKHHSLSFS
Description: Test 1: inhibitory activity to JAK3 tyrosine kinase (ELISA). As to conditions: 25 μM ATP in substrate solution, 30° C. for 1 hour, n=2. It counts as biochemical. The procedure:
Test 1: Test for inhibitory activity to JAK2 and JAK3 tyrosine kinase 1. […] The test material was dissolved in dimethylsulfoxide (DMSO) to be 10 mM, and further diluted with DMSO to be 100-fold concentrations for measurement (1000, 300, 100, 30, 10, 3, 1, 0.3, 0.1, 0.03, 0.01 μM). In addition, solutions diluted with an assay buffer up to 20 times were used as solutions of the test material. As a negative control, a solution of DMSO diluted 20 times with an assay buffer was used. […] 2. Measurement of the Activities of JAK2 and JAK3 Tyrosine Kinases The activity was determined by ELISA. […] The absorbance was measured by means of a micro-plate reader (BIO-RAD; Model 3550) at 450 nm. 3. Analysis of the Results of the Measurement The measured absorbance was subjected to a non-linear regression analysis by means of a SAS system (SAS Institute Inc.), and the concentration (IC50) of the test material which inhibited 50% of the activity of each tyrosine kinase was estimated.
(In general: In an ELISA, binding on a coated surface is turned into a signal by an enzyme label.)
For `COc1cc(Nc2cnccn2)nc(N[C@@H](C)c2ccc(F)cc2)c1` [Example 127, (S)—N^2-[1-(4-Fluorophenyl)ethyl]-4-methoxy-N^6-(pyrazin-2-yl)pyridine-2,6-diamine], the IC50 (usually the concentration needed to halve the response being measured) turned out to be 200 nM.

`C[C@H](Nc1cc(N2CCS(=O)(=O)CC2)cc(Nc2cnccn2)n1)c1ccc(F)cc1` [Example 128, 4-{2-[(1S)-1-(4-Fluorophenyl)ethylamino]-6-(pyrazin-2-ylamino)pyridin-4-yl}-1λ^6,4-thiomorpholin-1,1-dione] displayed an IC50 of 46 nM.

Compound `C[C@H](Nc1cc(N2CCC(O)CC2)cc(Nc2cnccn2)n1)c1ccc(F)cc1` [Example 129, (S)-1-{2-[1-(4-Fluorophenyl)ethylamino]-6-(pyrazin-2-ylamino)pyridin-4-yl}piperidin-4-ol] displayed an IC50 of 380 nM.

`CC(=O)N1CCCN(c2cc(Nc3cnccn3)nc(N[C@@H](C)c3ccc(F)cc3)c2)CC1` [Example 130, (S)-1-(4-{2-[1-(4-fluorophenyl)ethylamino]-6-(pyrazin-2-ylamino)pyridin-4-yl}-1,4-diazepan-1-yl)ethanone] had an IC50 of 570 nM.

As to `C[C@H](Nc1cc(Nc2ncccn2)cc(Nc2cnccn2)n1)c1ccc(F)cc1` [Example 131, (S)—N^2-[1-(4-Fluorophenyl)ethyl]-N^6-(pyrazin-2-yl)-N^4-(pyrimidin-2-yl)pyridine-2,4,6-triamine], the midpoint of inhibition, the IC50, lay at 180 nM.

For the compound `C[C@H](Nc1cc(Nc2ccccn2)cc(Nc2cnccn2)n1)c1ccc(F)cc1` [Example 132, (S)—N^2-[1-(4-Fluorophenyl)ethyl]-N^6-(pyrazin-2-yl)-N^4-(pyridin-2-yl)pyridine-2,4,6-triamine], it took 350 nM to reach half-maximal inhibition (IC50).

Turning to `C[C@H](Nc1cc(N2CCC3(CC2)OCCO3)cc(Nc2cnccn2)n1)c1ccc(F)cc1` [Example 133, N^2-[(S)-1-(4-Fluorophenyl)ethyl]-N^6-(pyrazin-2-yl)-4-(1,4-dioxa-8-azaspiro[4.5]decan-8-yl)pyridine-2,6-diamine], the half-maximal inhibitory concentration (IC50) is 230 nM.

In turn, `COC(=O)c1cc(Nc2cnccn2)nc(N[C@@H](C)c2ccc(F)cc2)c1` [Example 134, Methyl (S)-2-[1-(4-fluorophenyl)ethylamino]-6-(pyrazin-2-ylamino)isonicotinate] returned a 50% inhibitory concentration (IC50) of 620 nM.

`CNS(=O)(=O)c1ccc(-c2cc(Nc3cnccn3)nc(N[C@@H](C)c3ccc(F)cc3)n2)cc1` [Example 135, (S)-4-{2-[1-(4-Fluorophenyl)ethylamino]-6-(pyrazin-2-ylamino)pyrimidin-4-yl}-N-methylbenzenesulfonamide hydrochloride] came in with an IC50 of 320 nM.

`Cc1cn(-c2cc(Nc3cnccn3)nc(N[C@@H](C)c3ccc(F)cc3)c2)cn1` [Example 136, (S)—N^2-[1-(4-Fluorophenyl)ethyl]-4-(4-methyl-1H-imidazol-1-yl)-N^6-(pyrazin-2-yl)pyridine-2,6-diamine dihydrochloride]: half-maximal inhibition (IC50) required 170 nM.

`C[C@H](Nc1cc(Nc2cnccn2)cc(Nc2cnccn2)n1)c1ccc(F)cc1` [Example 137, (S)—N^2-[1-(4-Fluorophenyl)ethyl]-N^4,N^6-di(pyrazin-2-yl)pyridine-2,4,6-triamine]: the IC50 amounted to 160 nM.

`C[C@H](Nc1cc(OCC2CC2)cc(Nc2cnccn2)n1)c1ccc(F)cc1` [Example 138, (S)-4-(Cyclopropylmethoxy)-N^2-[1-(4-fluorophenyl)ethyl]-N^6-(pyrazin-2-yl)pyridine-2,6-diamine] gave an IC50 of 420 nM.

`C[C@@H](c1ccc(F)cc1)N(C)c1cc(-c2cnn(C)c2)cc(Nc2cnccn2)n1` [Example 139, (S)—N^2-[1-(4-Fluorophenyl)ethyl]-N^2-methyl-4-(1-methyl-1H-pyrazol-4-yl)-N^6-(pyrazin-2-yl)pyridine-2,6-diamine hydrochloride]: half-maximal inhibition (IC50) was put at 290 nM.

The compound `C[C@H](Nc1cc(CO)cc(Nc2cnccn2)n1)c1ccc(F)cc1` [Example 140, (S)-{2-[1-(4-Fluorophenyl)ethylamino]-6-(pyrazin-2-ylamino)pyridin-4-yl}methanol] yielded an IC50 of 61 nM.

For `C[C@H](Nc1cc(C(=O)O)cc(Nc2cnccn2)n1)c1ccc(F)cc1` [Example 141, (S)-2-[1-(4-Fluorophenyl)ethylamino]-6-(pyrazin-2-ylamino)isonicotinic acid], inhibition was half-maximal at 440 nM (IC50).

Compound `COCCOc1cc(Nc2cnccn2)nc(N[C@@H](C)c2ccc(F)cc2)c1` [Example 142, (S)—N^2-[1-(4-Fluorophenyl)ethyl]-4-(2-methoxyethoxy)-N^6-(pyrazin-2-yl)pyridine-2,6-diamine hydrochloride] registered an IC50 of 66 nM.

For `C[C@H](Nc1nc(C#N)cc(Nc2cnccn2)n1)c1ccc(F)cc1` [Example 143, (S)-2-[1-(4-Fluorophenyl)ethylamino]-6-(pyrazin-2-ylamino)pyrimidine-4-carbonitrile], half-maximal inhibition (IC50) required 2100 nM.

The compound `C[C@H](Nc1cc(C#N)cc(Nc2cnccn2)n1)c1ccc(F)cc1` [Example 144, (S)-2-[1-(4-Fluorophenyl)ethylamino]-6-(pyrazin-2-ylamino)isonicotinonitrile] showed an IC50 of 210 nM.

The compound `C[C@H](Nc1cc(C(N)=O)cc(Nc2cnccn2)n1)c1ccc(F)cc1` [Example 145, (S)-2-[1-(4-Fluorophenyl)ethylamino]-6-(pyrazin-2-ylamino)isonicotinamide] displayed an IC50 of 36 nM.

The compound `C[C@H](Nc1nc(Nc2cnccn2)cc(-c2ncon2)n1)c1ccc(F)cc1` [Example 146, (S)—N^2-[1-(4-Fluorophenyl)ethyl]-6-(1,2,4-oxadiazol-3-yl)-N^4-(pyrazin-2-yl)pyrimidine-2,4-diamine hydrochloride] returned an IC50 of 1400 nM.

`C[C@H](Nc1cc(-c2ncon2)cc(Nc2cnccn2)n1)c1ccc(F)cc1` [Example 147, (S)—N^2-[1-(4-Fluorophenyl)ethyl]-4-(1,2,4-oxadiazol-3-yl)-N^6-(pyrazin-2-yl)pyridine-2,6-diamine hydrochloride] showed an IC50 of 920 nM.

Turning to `COC(=O)c1ccc(Nc2cnccn2)nc1N[C@@H](C)c1ccc(F)cc1` [Example 148, Methyl (S)-2-[1-(4-fluorophenyl)ethylamino]-6-(pyrazin-2-ylamino)nicotinate], the IC50 amounted to 810 nM.

With `C[C@H](Nc1cc(C(=O)N(C)C)cc(Nc2cnccn2)n1)c1ccc(F)cc1` [Example 149, (S)-2-[1-(4-Fluorophenyl)ethylamino]-N,N-dimethyl-6-(pyrazin-2-ylamino)isonicotinamide], half-maximal inhibition (IC50) required 690 nM.

Compound `C[C@H](Nc1cc(C(=O)NCCN(C)C)cc(Nc2cnccn2)n1)c1ccc(F)cc1` [Example 150, (S)—N-[2-(Dimethylamino)ethyl]-2-[1-(4-fluorophenyl)ethylamino]-6-(pyrazin-2-ylamino)isonicotinamide] showed an IC50 of 150 nM.

Regarding `C[C@H](Nc1cc(C(=O)NC(C)(C)C)cc(Nc2cnccn2)n1)c1ccc(F)cc1` [Example 151, (S)—N-t-Butyl-2-[1-(4-fluorophenyl)ethylamino]-6-(pyrazin-2-ylamino)isonicotinamide], half-maximal inhibition (IC50) was put at 490 nM.

Take `CCNC(=O)c1cc(Nc2cnccn2)nc(N[C@@H](C)c2ccc(F)cc2)c1` [Example 152, (S)—N-Ethyl-2-[1-(4-fluorophenyl)ethylamino]-6-(pyrazin-2-ylamino) isonicotinamide]: the IC50 is 93 nM.

With `C[C@H](Nc1cc(C(=O)N2CCN(S(C)(=O)=O)CC2)cc(Nc2cnccn2)n1)c1ccc(F)cc1` [Example 153, (S)-{2-[1-(4-Fluorophenyl)ethylamino]-6-(pyrazin-2-ylamino)pyridin-4-yl}[4-(methanesulfonyl)piperazin-1-yl]methanone], it took 300 nM to reach half-maximal inhibition (IC50).
